The test deals with T1, caspase-3 (Homo sapiens, UniProt P42574).
T1 construct: gene CASP3; recombinant active caspase-3 enzyme
T1 sequence (P42574 29-175): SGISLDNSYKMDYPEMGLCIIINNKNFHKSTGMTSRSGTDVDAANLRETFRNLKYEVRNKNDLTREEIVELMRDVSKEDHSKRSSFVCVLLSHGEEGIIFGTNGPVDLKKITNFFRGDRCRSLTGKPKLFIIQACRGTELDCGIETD
T1 sequence (P42574 176-277): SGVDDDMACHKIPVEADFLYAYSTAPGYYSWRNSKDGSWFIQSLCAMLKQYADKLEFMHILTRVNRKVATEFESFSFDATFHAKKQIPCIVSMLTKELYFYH
The experiment in a line: recombinant caspase-3 activity assay with luminogenic Z-DEVD-aminoluciferin (Caspase-Glo […]), dose response. The test is classed as biochemical.

The term IC50 denotes the concentration at which inhibition is half-maximal. As to `O=c1c(O)c(-c2ccc(O)cc2)oc2cc(O)cc(O)c12` [kaempferol], the IC50 was 5.65 µM.

The values are drawn from publication PMC5794799, “Kaempferol mitigates Endoplasmic Reticulum Stress Induced Cell Death by targeting caspase 3/7” (Scientific Reports, 2018).
